In ChEMBL document CHEMBL1201862, “PubChem BioAssay data set” (2004):
Values joined by “and” are separate entries in the source; they are usually repeats but may differ in a detail not shown here. Equal entries are not always repeated. Each block holds one compound with its values, some of them ahead of it. Active and inactive are the calls of the source.

Experiments:
Format in all cases: functional
[1] = target: Glycogen synthase kinase-3 beta (Homo sapiens, UniProt P49841);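 note: value comes from a broad kinome profiling panel, with GSK3B as the panel member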
Chain of Glycogen synthase kinase-3 beta (P49841 whole entry): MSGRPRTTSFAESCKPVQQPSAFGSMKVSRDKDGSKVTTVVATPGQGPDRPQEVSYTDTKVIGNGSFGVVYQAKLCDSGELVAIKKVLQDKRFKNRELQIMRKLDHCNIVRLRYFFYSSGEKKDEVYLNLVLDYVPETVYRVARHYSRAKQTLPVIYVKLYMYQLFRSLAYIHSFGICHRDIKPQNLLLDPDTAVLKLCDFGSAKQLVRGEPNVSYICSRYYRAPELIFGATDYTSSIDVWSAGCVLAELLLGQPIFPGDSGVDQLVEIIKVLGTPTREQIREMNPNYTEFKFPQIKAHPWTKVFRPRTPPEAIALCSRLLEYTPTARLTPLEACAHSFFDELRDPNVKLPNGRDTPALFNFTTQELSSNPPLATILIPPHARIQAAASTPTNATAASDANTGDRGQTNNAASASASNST

[2] = target: Mitogen-activated protein kinase kinase kinase kinase 4 (Homo sapiens, UniProt O95819)
Chain of Mitogen-activated protein kinase kinase kinase kinase 4 (O95819 whole entry): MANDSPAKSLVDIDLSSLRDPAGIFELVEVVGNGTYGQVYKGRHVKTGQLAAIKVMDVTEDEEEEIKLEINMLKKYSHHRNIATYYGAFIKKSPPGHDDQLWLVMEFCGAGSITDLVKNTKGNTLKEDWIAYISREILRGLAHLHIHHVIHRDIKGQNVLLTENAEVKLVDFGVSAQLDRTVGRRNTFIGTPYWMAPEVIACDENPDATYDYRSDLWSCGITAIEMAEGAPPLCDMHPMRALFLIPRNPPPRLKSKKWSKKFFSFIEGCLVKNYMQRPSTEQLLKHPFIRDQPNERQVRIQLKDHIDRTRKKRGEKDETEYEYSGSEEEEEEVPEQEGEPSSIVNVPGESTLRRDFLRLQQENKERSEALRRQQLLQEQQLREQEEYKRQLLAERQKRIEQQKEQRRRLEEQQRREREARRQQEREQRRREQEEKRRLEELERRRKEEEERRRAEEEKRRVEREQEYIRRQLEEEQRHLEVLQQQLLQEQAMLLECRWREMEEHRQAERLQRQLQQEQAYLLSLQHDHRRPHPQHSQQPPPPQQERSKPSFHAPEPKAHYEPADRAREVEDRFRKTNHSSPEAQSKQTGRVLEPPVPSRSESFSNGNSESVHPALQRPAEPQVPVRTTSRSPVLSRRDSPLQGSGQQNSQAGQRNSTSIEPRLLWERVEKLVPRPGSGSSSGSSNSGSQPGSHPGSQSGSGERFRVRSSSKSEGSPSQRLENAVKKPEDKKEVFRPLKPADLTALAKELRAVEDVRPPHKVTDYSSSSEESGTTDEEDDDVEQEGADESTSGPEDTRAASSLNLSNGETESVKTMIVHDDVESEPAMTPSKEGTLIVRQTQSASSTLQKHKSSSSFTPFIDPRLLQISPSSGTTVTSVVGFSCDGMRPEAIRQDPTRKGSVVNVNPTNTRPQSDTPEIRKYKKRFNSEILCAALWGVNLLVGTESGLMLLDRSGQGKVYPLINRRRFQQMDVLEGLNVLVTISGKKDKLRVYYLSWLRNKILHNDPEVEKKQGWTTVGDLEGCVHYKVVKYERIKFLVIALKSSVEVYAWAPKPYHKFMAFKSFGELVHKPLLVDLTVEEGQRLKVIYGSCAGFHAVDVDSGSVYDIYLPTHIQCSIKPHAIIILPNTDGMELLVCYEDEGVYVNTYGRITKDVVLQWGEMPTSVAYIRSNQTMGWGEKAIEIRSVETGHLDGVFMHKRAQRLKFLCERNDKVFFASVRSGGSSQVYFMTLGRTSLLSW

[3] = target: Interleukin-1 receptor-associated kinase 4 (Homo sapiens, UniProt Q9NWZ3)
[4] = target: MAP kinase-interacting serine/threonine-protein kinase 2 (Homo sapiens, UniProt Q9HBH9)
Chain of MAP kinase-interacting serine/threonine-protein kinase 2 (Q9HBH9 whole entry): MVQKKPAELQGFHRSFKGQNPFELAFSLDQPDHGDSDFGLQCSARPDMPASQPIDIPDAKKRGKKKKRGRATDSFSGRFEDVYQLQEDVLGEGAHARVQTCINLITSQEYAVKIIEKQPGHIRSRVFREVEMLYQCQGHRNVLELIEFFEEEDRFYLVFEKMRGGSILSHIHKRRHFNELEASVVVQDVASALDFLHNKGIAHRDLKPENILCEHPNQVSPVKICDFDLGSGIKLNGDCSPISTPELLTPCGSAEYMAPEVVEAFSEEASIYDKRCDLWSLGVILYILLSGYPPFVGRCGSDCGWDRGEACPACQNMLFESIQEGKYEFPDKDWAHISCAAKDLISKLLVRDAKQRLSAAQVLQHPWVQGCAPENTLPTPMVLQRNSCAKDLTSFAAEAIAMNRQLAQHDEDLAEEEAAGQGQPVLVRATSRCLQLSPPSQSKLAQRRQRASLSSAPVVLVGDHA

[5] = target: Cell division cycle 7-related protein kinase (Homo sapiens, UniProt O00311);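 note: value obtained from a kinome-wide kinase panel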
Chain of Cell division cycle 7-related protein kinase (O00311 whole entry): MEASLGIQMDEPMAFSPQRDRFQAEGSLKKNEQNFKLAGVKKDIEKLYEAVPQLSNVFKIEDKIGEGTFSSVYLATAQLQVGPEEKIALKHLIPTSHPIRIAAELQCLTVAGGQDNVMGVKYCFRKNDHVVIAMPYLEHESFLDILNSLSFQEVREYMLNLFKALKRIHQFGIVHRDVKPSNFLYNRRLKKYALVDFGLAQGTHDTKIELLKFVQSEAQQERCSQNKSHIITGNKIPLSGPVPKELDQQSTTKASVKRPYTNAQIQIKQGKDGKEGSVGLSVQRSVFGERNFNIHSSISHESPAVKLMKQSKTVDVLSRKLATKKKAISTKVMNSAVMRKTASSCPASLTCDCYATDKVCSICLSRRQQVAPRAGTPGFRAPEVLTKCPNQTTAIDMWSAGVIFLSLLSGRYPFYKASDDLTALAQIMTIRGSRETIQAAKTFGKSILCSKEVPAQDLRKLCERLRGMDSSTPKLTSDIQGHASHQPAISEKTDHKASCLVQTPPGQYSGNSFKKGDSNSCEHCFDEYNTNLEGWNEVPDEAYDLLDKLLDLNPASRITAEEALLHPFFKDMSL

[6] = target: cAMP-dependent protein kinase catalytic subunit alpha (Homo sapiens, UniProt P17612)
[7] = target: Cyclin-dependent kinase 9 (Homo sapiens, UniProt P50750);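 note: value from the CDK9 entry of a kinome-spanning kinase panel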
[8] = target: Cyclin-dependent kinase 7 (Homo sapiens, UniProt P50613);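 note: value comes from a kinome-wide kinase profiling panel in which CDK7 is one member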
[9] = target: Dual specificity protein kinase CLK4 (Homo sapiens, UniProt Q9HAZ1)
[10] = target: Serine/threonine-protein kinase pim-1 (Homo sapiens, UniProt P11309)
Chain of Serine/threonine-protein kinase pim-1 (P11309 whole entry): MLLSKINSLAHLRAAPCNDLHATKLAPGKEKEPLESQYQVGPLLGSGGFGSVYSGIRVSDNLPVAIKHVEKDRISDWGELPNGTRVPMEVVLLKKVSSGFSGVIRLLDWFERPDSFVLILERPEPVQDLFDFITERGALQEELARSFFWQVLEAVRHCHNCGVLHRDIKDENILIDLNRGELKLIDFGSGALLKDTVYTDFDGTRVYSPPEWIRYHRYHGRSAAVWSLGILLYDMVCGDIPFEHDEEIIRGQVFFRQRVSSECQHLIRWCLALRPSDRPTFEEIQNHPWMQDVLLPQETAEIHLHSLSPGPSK

[11] = target: Homeodomain-interacting protein kinase 2 (Homo sapiens, UniProt Q9H2X6);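 note: measured within a kinome-wide kinase profiling panel, HIPK2 being one panel member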
[12] = target: Casein kinase I isoform alpha (Homo sapiens, UniProt P48729)
Chain of Casein kinase I isoform alpha (P48729 whole entry, canonical isoform): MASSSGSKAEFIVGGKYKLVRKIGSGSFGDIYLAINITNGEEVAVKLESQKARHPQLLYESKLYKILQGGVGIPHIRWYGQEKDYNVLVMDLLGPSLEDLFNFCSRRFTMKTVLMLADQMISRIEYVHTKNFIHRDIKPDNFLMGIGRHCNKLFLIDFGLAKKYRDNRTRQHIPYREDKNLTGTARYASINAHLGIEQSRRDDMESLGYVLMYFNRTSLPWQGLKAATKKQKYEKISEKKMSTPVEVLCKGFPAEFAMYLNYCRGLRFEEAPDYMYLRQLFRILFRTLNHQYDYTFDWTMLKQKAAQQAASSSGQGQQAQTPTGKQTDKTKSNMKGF

[13] = target: G protein-coupled receptor kinase 5 (Homo sapiens, UniProt P34947); assay: Navigating the Kinome. Panel member name: GPRK5
[14] = SAR analysis of small molecule activators of Apaf-1 using a LZ-Caspase-9/Caspase-3 Fluorescent Selectivity assay - Set 2.; conditions: read-out: EC50_Mean
[15] = target: T1, Apoptotic protease-activating factor 1 (Homo sapiens, UniProt O14727); assay: SAR analysis of small molecule Activators of Apaf-1 in a Fluorescent assay - set 2.; conditions: read-out: EC50_Mean
T1 sequence (O14727 whole entry): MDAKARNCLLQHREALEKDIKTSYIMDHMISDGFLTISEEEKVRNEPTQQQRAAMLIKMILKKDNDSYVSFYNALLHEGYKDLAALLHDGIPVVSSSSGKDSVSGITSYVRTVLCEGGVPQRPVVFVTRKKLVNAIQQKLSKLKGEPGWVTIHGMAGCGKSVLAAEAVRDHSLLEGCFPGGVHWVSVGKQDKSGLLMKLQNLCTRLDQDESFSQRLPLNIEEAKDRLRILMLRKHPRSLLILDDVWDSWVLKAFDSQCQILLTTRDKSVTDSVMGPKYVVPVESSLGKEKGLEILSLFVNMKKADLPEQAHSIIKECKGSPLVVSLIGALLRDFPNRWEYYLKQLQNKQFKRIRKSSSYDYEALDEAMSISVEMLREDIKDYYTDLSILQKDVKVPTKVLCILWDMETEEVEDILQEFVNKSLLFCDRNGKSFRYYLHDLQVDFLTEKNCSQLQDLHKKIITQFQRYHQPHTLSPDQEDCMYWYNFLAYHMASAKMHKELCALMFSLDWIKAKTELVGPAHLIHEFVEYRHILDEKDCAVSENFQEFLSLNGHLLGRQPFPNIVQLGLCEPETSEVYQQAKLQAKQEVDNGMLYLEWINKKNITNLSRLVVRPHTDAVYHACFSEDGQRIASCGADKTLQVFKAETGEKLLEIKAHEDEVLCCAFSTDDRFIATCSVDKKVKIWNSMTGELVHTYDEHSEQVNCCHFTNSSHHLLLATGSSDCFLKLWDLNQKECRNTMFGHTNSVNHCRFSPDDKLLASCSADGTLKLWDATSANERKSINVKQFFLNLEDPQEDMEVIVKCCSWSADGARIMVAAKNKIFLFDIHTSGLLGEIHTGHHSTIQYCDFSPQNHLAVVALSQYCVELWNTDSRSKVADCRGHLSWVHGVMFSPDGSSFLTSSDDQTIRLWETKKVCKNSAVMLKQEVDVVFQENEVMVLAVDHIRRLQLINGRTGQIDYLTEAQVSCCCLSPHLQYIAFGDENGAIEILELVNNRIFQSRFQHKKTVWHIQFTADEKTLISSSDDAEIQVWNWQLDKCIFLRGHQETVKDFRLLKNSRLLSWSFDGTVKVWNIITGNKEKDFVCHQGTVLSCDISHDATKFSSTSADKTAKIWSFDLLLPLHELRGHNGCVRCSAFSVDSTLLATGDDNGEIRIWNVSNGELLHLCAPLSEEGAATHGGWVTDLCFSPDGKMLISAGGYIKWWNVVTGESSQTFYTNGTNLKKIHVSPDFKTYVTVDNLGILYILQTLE

[16] = target: T1, Apoptotic protease-activating factor 1; assay: SAR analysis of small molecule Activators of Apaf-1 in a Fluorescent assay.; conditions: read-out: EC50_Mean
[17] = target: DNA dC->dU-editing enzyme APOBEC-3A (Homo sapiens, UniProt P31941); assay: SAR analysis of small molecule inhibitors of APOBEC3A DNA Deaminase via a fluorescence-based single-stranded DNA deaminase assay.; conditions: read-out: IC50_Mean
Chain of DNA dC->dU-editing enzyme APOBEC-3A (P31941 whole entry): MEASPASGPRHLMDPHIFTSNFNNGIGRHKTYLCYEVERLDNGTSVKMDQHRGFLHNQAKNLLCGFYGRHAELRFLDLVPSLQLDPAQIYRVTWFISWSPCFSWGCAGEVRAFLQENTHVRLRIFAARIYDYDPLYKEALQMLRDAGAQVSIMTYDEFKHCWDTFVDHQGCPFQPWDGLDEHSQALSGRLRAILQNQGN

[18] = target: DNA dC->dU-editing enzyme APOBEC-3G (Homo sapiens, UniProt Q9HC16); assay: inhibition of APOBEC3G ssDNA deamination – biochemical, fluorescence, single-stranded DNA substrate, SAR follow-up (AID 602136); conditions: read-out: IC50_Mean
[19] = target: Mitogen-activated protein kinase kinase kinase kinase 5 (Homo sapiens, UniProt Q9Y4K4);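 note: measured as one member of a kinome-spanning kinase panel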
Chain of Mitogen-activated protein kinase kinase kinase kinase 5 (Q9Y4K4 whole entry): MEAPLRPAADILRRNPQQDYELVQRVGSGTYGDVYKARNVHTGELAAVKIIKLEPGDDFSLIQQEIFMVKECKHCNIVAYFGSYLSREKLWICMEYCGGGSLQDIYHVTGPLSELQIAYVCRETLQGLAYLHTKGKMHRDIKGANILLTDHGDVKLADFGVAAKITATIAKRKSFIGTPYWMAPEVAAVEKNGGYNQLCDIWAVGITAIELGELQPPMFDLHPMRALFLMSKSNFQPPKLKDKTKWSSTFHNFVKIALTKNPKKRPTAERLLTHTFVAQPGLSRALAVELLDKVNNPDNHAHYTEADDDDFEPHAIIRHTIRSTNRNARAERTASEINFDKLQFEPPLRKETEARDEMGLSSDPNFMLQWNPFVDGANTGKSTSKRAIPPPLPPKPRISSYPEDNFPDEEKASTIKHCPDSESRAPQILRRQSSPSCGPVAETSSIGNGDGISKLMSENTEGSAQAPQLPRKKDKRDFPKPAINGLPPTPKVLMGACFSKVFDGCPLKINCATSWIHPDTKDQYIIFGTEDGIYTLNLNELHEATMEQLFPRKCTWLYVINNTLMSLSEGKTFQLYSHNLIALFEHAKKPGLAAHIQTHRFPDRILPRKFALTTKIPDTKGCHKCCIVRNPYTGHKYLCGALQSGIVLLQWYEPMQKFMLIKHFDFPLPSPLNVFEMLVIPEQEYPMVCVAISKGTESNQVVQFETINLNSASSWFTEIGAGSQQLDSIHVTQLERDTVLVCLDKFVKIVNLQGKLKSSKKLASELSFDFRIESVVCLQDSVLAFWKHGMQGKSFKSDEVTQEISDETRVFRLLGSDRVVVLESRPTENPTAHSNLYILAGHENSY

[20] = target: Mitogen-activated protein kinase 13 (Homo sapiens, UniProt O15264)
Chain of Mitogen-activated protein kinase 13 (O15264 whole entry): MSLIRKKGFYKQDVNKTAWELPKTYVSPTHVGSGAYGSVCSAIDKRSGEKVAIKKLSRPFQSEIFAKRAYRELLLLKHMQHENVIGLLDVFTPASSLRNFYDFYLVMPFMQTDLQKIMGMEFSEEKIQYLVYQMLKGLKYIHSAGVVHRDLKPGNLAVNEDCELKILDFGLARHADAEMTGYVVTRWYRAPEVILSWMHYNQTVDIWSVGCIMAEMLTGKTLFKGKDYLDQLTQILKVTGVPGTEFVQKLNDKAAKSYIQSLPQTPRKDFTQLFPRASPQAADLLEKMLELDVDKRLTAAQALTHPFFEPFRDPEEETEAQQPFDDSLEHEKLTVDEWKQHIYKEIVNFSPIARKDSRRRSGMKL

[21] = target: Tyrosine-protein kinase Blk (Homo sapiens, UniProt P51451);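 note: obtained as one member of a kinome-wide kinase assay panel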
[22] = target: Mitogen-activated protein kinase kinase kinase kinase 2 (Homo sapiens, UniProt Q12851);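 note: measured as one member of a kinome-wide kinase panel, with MAP4K2 as the panel entry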
[23] = target: Mast/stem cell growth factor receptor Kit (Homo sapiens, UniProt P10721);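 note: KIT entry within a kinase panel assay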

Ki [1]: 1.26 µM (active)
Ki [2]: 0.1 µM (active)
Ki [3]: 0.398 µM (active)
Ki [4]: 0.126 µM (active)
Ki [5]: 0.0126 µM (active)
Ki [6]: 0.501 µM (active)
Ki [7]: 0.1 µM (active)
Ki [8]: 0.2 µM (active)
Ki [9]: 0.0126 µM (active)
Ki [10]: 5.01 µM (active)
Ki [11]: 2 µM (active)
Structure (SMILES): CN(C)c1cc(-c2ccncc2)cc2[nH]nc(N)c12

Ki [12]: 3.16 µM (active)
Ki [13]: 2.51 µM (active)
Structure (SMILES): NS(=O)(=O)OCC1CC(n2ccc3c(NC4CCc5ccccc54)ncnc32)CC1O (centres undefined)

EC50 [16]: 5.13 µM (active)
Structure (SMILES): Cc1nn(CC(C)C(=O)O)c(C)c1Br (centres undefined)
EC50 [14]: > 100 µM (inactive) and > 99 µM (inactive)
EC50 [15]: 4.75 µM (active) and 3.41 µM (active) and 12.7 µM (active)

Structure (SMILES): CCCn1c(=O)c2ccc(C(=O)NC(C)C)cc2n2c(=O)n(Cc3c(F)cccc3Cl)nc12
IC50 [17]: > 99 µM (inactive)
IC50 [18]: > 99 µM (inactive)

Ki [19]: 0.316 µM (active)
Ki [20]: > 7.94 µM (inactive)
Ki [21]: 0.316 µM (active)
Ki [22]: 0.794 µM (active)
Ki [5]: > 1.26 µM (inactive)
Ki [23]: > 1.26 µM (inactive)
Structure (SMILES): CC1(O)CC(c2nc(-c3ccc4ccc(-c5ccccc5)nc4c3)c3c(N)nccn23)C1 (centres undefined)
